The results in this text go back to ChEMBL document CHEMBL5523734, “Backbone-Determined Antiarrhythmic Structure-Activity Relationships for a Mirror Image, Oligomeric Depsipeptide Natural Product” (J Med Chem, 2024).

The source made the active and inactive calls. The rule behind the calls is not given here. Numbered stars: 1 amine (or outer) side, 2 acyl side, 3 side chain; on linkers, the order of the positions; unused ones are H or OH. Square brackets hold non-standard residues; d marks the D form. Peptide text beside a SMILES is read from it. X1 = CCCCC[C@H](O[*:1])C(=O)[*:2]; NMeAhp(2) = CCCCC[C@H](NC)C(=O)O; Ahp(2) = CCCCC[C@H](N)C(=O)O; dNMeA = CN[C@H](C)C(=O)O

Ryanodine receptor 2 (Mus musculus), sequence (E9Q401 whole entry): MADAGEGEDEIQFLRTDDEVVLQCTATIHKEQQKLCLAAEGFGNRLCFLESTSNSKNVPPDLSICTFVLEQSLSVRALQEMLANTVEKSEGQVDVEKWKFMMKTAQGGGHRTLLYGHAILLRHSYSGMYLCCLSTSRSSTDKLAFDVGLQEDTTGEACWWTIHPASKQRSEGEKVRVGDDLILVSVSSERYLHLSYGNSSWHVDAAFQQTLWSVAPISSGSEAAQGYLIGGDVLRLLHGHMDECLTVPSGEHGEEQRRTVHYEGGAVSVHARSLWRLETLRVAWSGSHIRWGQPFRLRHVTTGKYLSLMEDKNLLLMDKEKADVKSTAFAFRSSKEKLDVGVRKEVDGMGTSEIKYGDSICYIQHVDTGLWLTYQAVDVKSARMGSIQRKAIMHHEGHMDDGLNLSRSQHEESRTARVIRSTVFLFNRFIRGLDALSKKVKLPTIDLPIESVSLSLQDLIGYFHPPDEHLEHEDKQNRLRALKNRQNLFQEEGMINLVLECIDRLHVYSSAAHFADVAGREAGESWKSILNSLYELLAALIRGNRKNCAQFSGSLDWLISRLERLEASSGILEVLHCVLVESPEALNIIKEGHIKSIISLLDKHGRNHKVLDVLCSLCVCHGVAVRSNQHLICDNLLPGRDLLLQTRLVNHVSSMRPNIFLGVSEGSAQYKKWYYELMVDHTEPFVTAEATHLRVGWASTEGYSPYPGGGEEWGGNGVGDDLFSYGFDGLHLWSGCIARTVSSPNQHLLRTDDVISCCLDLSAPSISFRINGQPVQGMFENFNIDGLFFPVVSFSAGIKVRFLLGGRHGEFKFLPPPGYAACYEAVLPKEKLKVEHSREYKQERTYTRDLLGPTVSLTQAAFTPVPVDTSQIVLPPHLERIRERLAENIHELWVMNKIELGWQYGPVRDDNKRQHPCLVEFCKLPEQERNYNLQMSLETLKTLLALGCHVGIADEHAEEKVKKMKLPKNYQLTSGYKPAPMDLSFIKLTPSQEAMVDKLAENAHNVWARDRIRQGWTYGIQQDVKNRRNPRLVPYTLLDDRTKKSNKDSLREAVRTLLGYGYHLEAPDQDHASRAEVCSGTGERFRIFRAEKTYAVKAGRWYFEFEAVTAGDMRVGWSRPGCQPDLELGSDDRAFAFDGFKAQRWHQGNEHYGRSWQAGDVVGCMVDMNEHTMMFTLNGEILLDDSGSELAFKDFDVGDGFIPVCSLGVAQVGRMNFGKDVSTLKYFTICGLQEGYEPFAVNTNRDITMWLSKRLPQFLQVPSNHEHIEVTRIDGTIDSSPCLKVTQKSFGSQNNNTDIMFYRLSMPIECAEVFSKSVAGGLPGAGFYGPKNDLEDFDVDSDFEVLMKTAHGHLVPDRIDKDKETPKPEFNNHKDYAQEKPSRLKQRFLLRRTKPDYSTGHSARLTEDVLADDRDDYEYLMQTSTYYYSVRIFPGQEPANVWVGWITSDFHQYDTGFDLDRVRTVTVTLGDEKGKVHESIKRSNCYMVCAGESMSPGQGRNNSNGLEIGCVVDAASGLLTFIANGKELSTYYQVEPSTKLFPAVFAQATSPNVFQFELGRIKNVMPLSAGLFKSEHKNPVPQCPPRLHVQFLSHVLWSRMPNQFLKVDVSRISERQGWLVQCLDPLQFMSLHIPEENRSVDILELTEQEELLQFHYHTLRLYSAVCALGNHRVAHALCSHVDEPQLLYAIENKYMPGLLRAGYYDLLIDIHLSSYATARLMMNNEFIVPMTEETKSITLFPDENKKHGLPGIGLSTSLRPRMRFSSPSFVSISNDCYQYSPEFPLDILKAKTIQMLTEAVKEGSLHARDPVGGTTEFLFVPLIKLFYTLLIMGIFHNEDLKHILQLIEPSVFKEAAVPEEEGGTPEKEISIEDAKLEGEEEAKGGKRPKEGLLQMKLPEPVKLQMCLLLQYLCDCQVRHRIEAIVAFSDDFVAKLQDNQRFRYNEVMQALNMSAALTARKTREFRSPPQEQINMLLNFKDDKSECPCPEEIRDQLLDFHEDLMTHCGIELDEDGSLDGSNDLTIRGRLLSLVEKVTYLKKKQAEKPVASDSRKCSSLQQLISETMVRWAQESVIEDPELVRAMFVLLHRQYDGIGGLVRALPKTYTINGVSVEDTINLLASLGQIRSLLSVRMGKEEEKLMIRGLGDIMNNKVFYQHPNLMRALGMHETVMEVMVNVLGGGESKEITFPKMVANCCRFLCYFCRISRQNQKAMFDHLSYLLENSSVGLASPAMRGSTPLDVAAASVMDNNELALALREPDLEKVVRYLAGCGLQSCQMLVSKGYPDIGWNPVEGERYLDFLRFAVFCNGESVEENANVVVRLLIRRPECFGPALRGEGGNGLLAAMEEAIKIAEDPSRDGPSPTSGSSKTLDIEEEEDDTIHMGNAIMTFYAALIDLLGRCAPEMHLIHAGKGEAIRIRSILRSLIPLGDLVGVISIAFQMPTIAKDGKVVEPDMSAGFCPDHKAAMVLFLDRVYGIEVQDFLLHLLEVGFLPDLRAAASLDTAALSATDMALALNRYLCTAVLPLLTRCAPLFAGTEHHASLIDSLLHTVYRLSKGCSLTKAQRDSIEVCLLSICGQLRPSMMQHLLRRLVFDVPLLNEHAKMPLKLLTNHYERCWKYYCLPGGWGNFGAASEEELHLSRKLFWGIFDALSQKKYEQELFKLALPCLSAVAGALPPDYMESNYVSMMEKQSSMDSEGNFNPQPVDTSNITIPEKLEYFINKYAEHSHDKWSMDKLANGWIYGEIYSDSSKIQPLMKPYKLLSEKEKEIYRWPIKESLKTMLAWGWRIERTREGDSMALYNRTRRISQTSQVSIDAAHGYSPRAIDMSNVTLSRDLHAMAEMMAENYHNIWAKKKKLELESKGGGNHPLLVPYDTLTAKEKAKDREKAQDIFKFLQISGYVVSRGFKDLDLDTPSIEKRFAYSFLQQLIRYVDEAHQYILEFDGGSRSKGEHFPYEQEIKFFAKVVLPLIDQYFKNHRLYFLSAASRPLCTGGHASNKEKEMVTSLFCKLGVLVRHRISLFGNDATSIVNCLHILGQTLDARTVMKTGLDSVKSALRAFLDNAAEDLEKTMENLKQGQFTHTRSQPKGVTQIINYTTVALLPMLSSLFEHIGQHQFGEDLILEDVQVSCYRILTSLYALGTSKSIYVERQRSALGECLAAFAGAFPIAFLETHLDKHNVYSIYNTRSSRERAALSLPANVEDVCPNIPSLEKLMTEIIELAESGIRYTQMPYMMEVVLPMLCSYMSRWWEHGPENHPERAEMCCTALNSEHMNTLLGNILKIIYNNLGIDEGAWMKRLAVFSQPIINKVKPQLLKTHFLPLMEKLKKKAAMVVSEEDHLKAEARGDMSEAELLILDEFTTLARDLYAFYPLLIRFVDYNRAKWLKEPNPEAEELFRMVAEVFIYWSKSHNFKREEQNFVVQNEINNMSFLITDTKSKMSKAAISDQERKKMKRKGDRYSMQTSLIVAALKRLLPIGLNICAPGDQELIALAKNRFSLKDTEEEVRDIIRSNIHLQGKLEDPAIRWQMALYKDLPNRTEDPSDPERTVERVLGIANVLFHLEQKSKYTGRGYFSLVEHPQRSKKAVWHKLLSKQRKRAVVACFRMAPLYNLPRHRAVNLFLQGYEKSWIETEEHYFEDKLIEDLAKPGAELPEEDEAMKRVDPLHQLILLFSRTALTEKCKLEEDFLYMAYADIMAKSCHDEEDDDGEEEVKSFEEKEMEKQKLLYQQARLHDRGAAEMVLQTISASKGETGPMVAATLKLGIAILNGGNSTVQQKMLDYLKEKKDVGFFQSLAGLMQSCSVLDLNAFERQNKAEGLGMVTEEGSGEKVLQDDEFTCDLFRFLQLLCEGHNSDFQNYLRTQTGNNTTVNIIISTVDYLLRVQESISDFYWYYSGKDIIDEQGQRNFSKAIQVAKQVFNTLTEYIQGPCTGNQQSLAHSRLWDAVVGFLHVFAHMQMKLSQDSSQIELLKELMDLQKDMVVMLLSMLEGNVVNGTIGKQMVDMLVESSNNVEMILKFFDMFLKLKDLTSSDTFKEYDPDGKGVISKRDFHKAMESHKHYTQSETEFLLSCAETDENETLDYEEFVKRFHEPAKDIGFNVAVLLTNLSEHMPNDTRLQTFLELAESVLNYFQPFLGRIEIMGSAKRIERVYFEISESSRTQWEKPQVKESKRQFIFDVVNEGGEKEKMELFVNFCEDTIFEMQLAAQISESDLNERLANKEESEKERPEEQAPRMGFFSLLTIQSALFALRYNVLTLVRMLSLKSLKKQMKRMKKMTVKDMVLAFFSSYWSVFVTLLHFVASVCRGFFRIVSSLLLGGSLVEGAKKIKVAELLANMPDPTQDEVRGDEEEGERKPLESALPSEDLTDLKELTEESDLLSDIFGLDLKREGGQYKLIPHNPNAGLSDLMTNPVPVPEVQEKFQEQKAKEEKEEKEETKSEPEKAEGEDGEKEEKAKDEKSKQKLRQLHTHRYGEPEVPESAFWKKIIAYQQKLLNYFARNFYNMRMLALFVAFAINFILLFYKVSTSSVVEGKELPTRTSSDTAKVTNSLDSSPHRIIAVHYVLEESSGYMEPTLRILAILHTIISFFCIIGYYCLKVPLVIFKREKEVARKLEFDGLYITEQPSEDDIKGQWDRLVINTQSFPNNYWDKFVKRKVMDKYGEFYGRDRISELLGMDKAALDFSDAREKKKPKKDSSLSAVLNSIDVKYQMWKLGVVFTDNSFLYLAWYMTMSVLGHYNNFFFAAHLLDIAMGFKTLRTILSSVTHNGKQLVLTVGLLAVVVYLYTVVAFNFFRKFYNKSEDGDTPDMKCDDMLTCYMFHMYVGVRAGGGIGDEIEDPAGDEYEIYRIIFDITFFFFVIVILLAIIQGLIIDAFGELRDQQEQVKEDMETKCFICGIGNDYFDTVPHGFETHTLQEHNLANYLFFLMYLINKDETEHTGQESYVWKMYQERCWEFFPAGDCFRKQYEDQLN

One series has as its target Ryanodine receptor 2 (Mus musculus) (UniProt E9Q401). Put plainly: Inhibition of RyR2-mediated calcium spark frequency in saponin-permeabilized left ventricular myocytes of C57BL/6J mouse at 25 uM incubated for 15 min by Fluo-4 dye based analysis. Type of series: cell-based. The conditions noted are these: Ventricular myocyte.
Regarding `CCCCC[C@@H]1OC(=O)[C@@H](C)N(C)C(=O)[C@H](CCCCC)N(C)C(=O)[C@@H](C)N(C)C(=O)[C@H](CCCCC)N(C)C(=O)[C@@H](C)N(C)C(=O)[C@H](CCCCC)OC(=O)[C@@H](C)N(C)C1=O`, the inhibition entry was “inactive”.
On to `CCCCC[C@@H]1NC(=O)[C@@H](C)N(C)C(=O)[C@H](CCCCC)NC(=O)[C@@H](C)N(C)C(=O)[C@H](CCCCC)OC(=O)[C@@H](C)N(C)C(=O)[C@H](CCCCC)NC(=O)[C@@H](C)N(C)C1=O` (cyclo([Ahp(2)][dNMeA][Ahp(2)][dNMeA][Ahp(2)][dNMeA][X1][dNMeA])), for which the inhibition result is “inactive”.
The same measure, in the same setting: the result for `CCCCC[C@H]1C(=O)N[C@H](C)C(=O)N(C)[C@@H](CCCCC)C(=O)N[C@H](C)C(=O)N(C)[C@@H](CCCCC)C(=O)N(C)[C@H](C)C(=O)N(C)[C@@H](CCCCC)C(=O)N(C)[C@H](C)C(=O)N1C` (cyclo([NMeAhp(2)][dA][NMeAhp(2)][dA][NMeAhp(2)][dNMeA][NMeAhp(2)][dNMeA])) reads “inactive”; that for `CCCCC[C@H]1C(=O)N[C@H](C)C(=O)N(C)[C@@H](CCCCC)C(=O)N(C)[C@H](C)C(=O)N(C)[C@@H](CCCCC)C(=O)N(C)[C@H](C)C(=O)N(C)[C@@H](CCCCC)C(=O)N(C)[C@H](C)C(=O)N1C` (cyclo([NMeAhp(2)][dA][NMeAhp(2)][dNMeA][NMeAhp(2)][dNMeA][NMeAhp(2)][dNMeA])), “inactive”; that for `CCCCC[C@H]1C(=O)N[C@H](C)C(=O)N(C)[C@@H](CCCCC)C(=O)N(C)[C@H](C)C(=O)N(C)[C@@H](CCCCC)C(=O)N[C@H](C)C(=O)N(C)[C@@H](CCCCC)C(=O)N(C)[C@H](C)C(=O)N1C` (cyclo([NMeAhp(2)][dA][NMeAhp(2)][dNMeA][NMeAhp(2)][dA][NMeAhp(2)][dNMeA])), “inactive”.
On the same count and under the same terms, the result for `CCCCC[C@@H]1NC(=O)[C@@H](C)N(C)C(=O)[C@H](CCCCC)N(C)C(=O)[C@@H](C)N(C)C(=O)[C@H](CCCCC)N(C)C(=O)[C@@H](C)N(C)C(=O)[C@H](CCCCC)N(C)C(=O)[C@@H](C)N(C)C1=O` (cyclo([Ahp(2)][dNMeA][NMeAhp(2)][dNMeA][NMeAhp(2)][dNMeA][NMeAhp(2)][dNMeA])) reads “inactive”.
The same measure, in the same setting: the result for `CCCCC[C@@H]1OC(=O)[C@@H](C)N(C)C(=O)[C@H](CCCCC)OC(=O)[C@@H](C)N(C)C(=O)[C@H](CCCCC)N(C)C(=O)[C@@H](C)N(C)C(=O)[C@H](CCCCC)OC(=O)[C@@H](C)N(C)C1=O` reads “Active”; that for `CCCCC[C@H]1C(=O)N[C@H](C)C(=O)N(C)[C@@H](CCCCC)C(=O)N[C@H](C)C(=O)N(C)[C@@H](CCCCC)C(=O)N[C@H](C)C(=O)N(C)[C@@H](CCCCC)C(=O)N[C@H](C)C(=O)N1C` (cyclo([NMeAhp(2)][dA][NMeAhp(2)][dA][NMeAhp(2)][dA][NMeAhp(2)][dA])), “inactive”; that for `CCCCC[C@@H]1OC(=O)[C@@H](C)N(C)C(=O)[C@H](CCCCC)N(C)C(=O)[C@@H](C)N(C)C(=O)[C@H](CCCCC)N(C)C(=O)[C@@H](C)N(C)C(=O)[C@H](CCCCC)N(C)C(=O)[C@@H](C)N(C)C1=O`, “inactive”.
Consider `CCCCC[C@@H]1NC(=O)[C@@H](C)N(C)C(=O)[C@H](CCCCC)N(C)C(=O)[C@@H](C)N(C)C(=O)[C@H](CCCCC)N(C)C(=O)[C@@H](C)N(C)C(=O)[C@H](CCCCC)NC(=O)[C@@H](C)N(C)C1=O` (cyclo([Ahp(2)][dNMeA][Ahp(2)][dNMeA][NMeAhp(2)][dNMeA][NMeAhp(2)][dNMeA])), for which the inhibition result is “inactive”.
Turning to `CCCCC[C@@H]1OC(=O)[C@@H](C)N(C)C(=O)[C@H](CCCCC)OC(=O)[C@@H](C)N(C)C(=O)[C@H](CCCCC)OC(=O)[C@@H](C)N(C)C(=O)[C@H](CCCCC)OC(=O)[C@@H](C)N(C)C1=O`, the inhibition entry was “inactive”.
Same read-out and setting: for `CCCCC[C@@H]1NC(=O)[C@@H](C)N(C)C(=O)[C@H](CCCCC)OC(=O)[C@@H](C)N(C)C(=O)[C@H](CCCCC)OC(=O)[C@@H](C)N(C)C(=O)[C@H](CCCCC)NC(=O)[C@@H](C)N(C)C1=O` (cyclo([Ahp(2)][dNMeA][Ahp(2)][dNMeA][X1][dNMeA][X1][dNMeA])) the value was “inactive”; for `CCCCC[C@H]1C(=O)N[C@H](C)C(=O)N(C)[C@@H](CCCCC)C(=O)N[C@H](C)C(=O)N(C)[C@@H](CCCCC)C(=O)N[C@H](C)C(=O)N(C)[C@@H](CCCCC)C(=O)N(C)[C@H](C)C(=O)N1C` (cyclo([NMeAhp(2)][dA][NMeAhp(2)][dA][NMeAhp(2)][dA][NMeAhp(2)][dNMeA])), “inactive”.
The same measure, in the same setting: the result for `CCCCC[C@@H]1NC(=O)[C@@H](C)N(C)C(=O)[C@H](CCCCC)N(C)C(=O)[C@@H](C)N(C)C(=O)[C@H](CCCCC)NC(=O)[C@@H](C)N(C)C(=O)[C@H](CCCCC)N(C)C(=O)[C@@H](C)N(C)C1=O` (cyclo([Ahp(2)][dNMeA][NMeAhp(2)][dNMeA][Ahp(2)][dNMeA][NMeAhp(2)][dNMeA])) reads “inactive”; that for `CCCCC[C@@H]1NC(=O)[C@@H](C)N(C)C(=O)[C@H](CCCCC)NC(=O)[C@@H](C)N(C)C(=O)[C@H](CCCCC)NC(=O)[C@@H](C)N(C)C(=O)[C@H](CCCCC)NC(=O)[C@@H](C)N(C)C1=O` (cyclo([Ahp(2)][dNMeA][Ahp(2)][dNMeA][Ahp(2)][dNMeA][Ahp(2)][dNMeA])), “inactive”.
Take `CCCCC[C@@H]1OC(=O)[C@@H](C)N(C)C(=O)[C@H](CCCCC)OC(=O)[C@@H](C)N(C)C(=O)[C@H](CCCCC)OC(=O)[C@@H](C)N(C)C(=O)[C@H](CCCCC)OC(=O)[C@@H](C)NC1=O`: the inhibition entry was “inactive”.
The same measure, in the same setting: for `CCCCC[C@@H]1OC(=O)[C@@H](C)NC(=O)[C@H](CCCCC)OC(=O)[C@@H](C)NC(=O)[C@H](CCCCC)OC(=O)[C@@H](C)NC(=O)[C@H](CCCCC)OC(=O)[C@@H](C)NC1=O` the value was “inactive”; for `CCCCC[C@@H]1OC(=O)[C@@H](C)N(C)C(=O)[C@H](CCCCC)OC(=O)[C@@H](C)NC(=O)[C@H](CCCCC)OC(=O)[C@@H](C)NC(=O)[C@H](CCCCC)OC(=O)[C@@H](C)NC1=O`, “inactive”; for `CCCCC[C@@H]1OC(=O)[C@@H](C)N(C)C(=O)[C@H](CCCCC)OC(=O)[C@@H](C)NC(=O)[C@H](CCCCC)OC(=O)[C@@H](C)N(C)C(=O)[C@H](CCCCC)OC(=O)[C@@H](C)NC1=O`, “inactive”.
The same measure, in the same setting: for `CCCCC[C@@H]1OC(=O)[C@@H](C)N(C)C(=O)[C@H](CCCCC)N(C)C(=O)[C@@H](C)N(C)C(=O)[C@H](CCCCC)OC(=O)[C@@H](C)N(C)C(=O)[C@H](CCCCC)N(C)C(=O)[C@@H](C)N(C)C1=O` the value was “inactive”; for `CCCCC[C@@H]1NC(=O)[C@@H](C)N(C)C(=O)[C@H](CCCCC)NC(=O)[C@@H](C)N(C)C(=O)[C@H](CCCCC)N(C)C(=O)[C@@H](C)N(C)C(=O)[C@H](CCCCC)NC(=O)[C@@H](C)N(C)C1=O` (cyclo([Ahp(2)][dNMeA][Ahp(2)][dNMeA][Ahp(2)][dNMeA][NMeAhp(2)][dNMeA])), “inactive”.
On the same count and under the same terms, the result for `CCCCC[C@@H]1OC(=O)[C@@H](C)N(C)C(=O)[C@H](CCCCC)OC(=O)[C@@H](C)N(C)C(=O)[C@H](CCCCC)OC(=O)[C@@H](C)NC(=O)[C@H](CCCCC)OC(=O)[C@@H](C)NC1=O` reads “inactive”; that for `CCCCC[C@H]1C(=O)N(C)[C@H](C)C(=O)N(C)[C@@H](CCCCC)C(=O)N(C)[C@H](C)C(=O)N(C)[C@@H](CCCCC)C(=O)N(C)[C@H](C)C(=O)N(C)[C@@H](CCCCC)C(=O)N(C)[C@H](C)C(=O)N1C` (cyclo([NMeAhp(2)][dNMeA][NMeAhp(2)][dNMeA][NMeAhp(2)][dNMeA][NMeAhp(2)][dNMeA])), “inactive”.
With `CCCCC[C@@H]1NC(=O)[C@@H](C)N(C)C(=O)[C@H](CCCCC)OC(=O)[C@@H](C)N(C)C(=O)[C@H](CCCCC)NC(=O)[C@@H](C)N(C)C(=O)[C@H](CCCCC)OC(=O)[C@@H](C)N(C)C1=O` (cyclo([Ahp(2)][dNMeA][X1][dNMeA][Ahp(2)][dNMeA][X1][dNMeA])), the inhibition result was “inactive”.
Still for that read-out and setting: for `CCCCC[C@@H]1NC(=O)[C@@H](C)N(C)C(=O)[C@H](CCCCC)OC(=O)[C@@H](C)N(C)C(=O)[C@H](CCCCC)OC(=O)[C@@H](C)N(C)C(=O)[C@H](CCCCC)OC(=O)[C@@H](C)N(C)C1=O` (cyclo([Ahp(2)][dNMeA][X1][dNMeA][X1][dNMeA][X1][dNMeA])) the value was “Active”.

System in a further series: not listed separately
Put plainly: Passive permeability of compound by PAMPA. Type of series: ADME.
Conditions: not given
For orientation: In PAMPA a lipid-coated filter parts donor from acceptor wells.
Regarding `CCCCC[C@@H]1OC(=O)[C@@H](C)N(C)C(=O)[C@H](CCCCC)OC(=O)[C@@H](C)N(C)C(=O)[C@H](CCCCC)N(C)C(=O)[C@@H](C)N(C)C(=O)[C@H](CCCCC)OC(=O)[C@@H](C)N(C)C1=O`, the permeability result is recorded as “Permeable”.
On the same count and under the same terms, for `CCCCC[C@@H]1NC(=O)[C@@H](C)N(C)C(=O)[C@H](CCCCC)OC(=O)[C@@H](C)N(C)C(=O)[C@H](CCCCC)OC(=O)[C@@H](C)N(C)C(=O)[C@H](CCCCC)OC(=O)[C@@H](C)N(C)C1=O` (cyclo([Ahp(2)][dNMeA][X1][dNMeA][X1][dNMeA][X1][dNMeA])) the value was “Permeable”.
